Measurements as given in patent publication US12257283B2 (priority 2019, dated 2025).
Read-outs that look alike come from different tables or passages of the source.

Assays:
cocaine reward = conditions: literature data, cited from earlier work
[1] = tested on: cocaine locomotor activation; conditions: literature data, cited from earlier work
cocaine taking = conditions: literature data; cited from earlier work
[2] = target: chemokine receptors CCR2/CCR5; assay type: biochemical; conditions: inhibition of chemokine receptors CCR2/CCR5; read-out: Potency EC50
Excerpt: Table 1 illustrates the potencies of several peptides of the invention to inhibit chemokine receptors CCR2/CCR5. These receptor-active peptides (Receptides, abbreviated as RAP's) represent a novel, safe and non-addictive pharmacological intervention for substance abuse disorders by normalizing the neurobiology of addiction to suppress drug-seeking behaviors, reduce psychostimulant (cocaine, methamphetamine) activation and locomotion, and inhibit consumption of alcohol, other drugs of abuse and substance abuse in general. They may also treat depression and anxiety as those commonly occur in substance abuse. […] Decades-old treatments (methadone, buprenorphine etc.) require extended use, suffer from high recidivism, are only partly effective and are clearly inadequate. New treatments with no abuse liability, that blunt drug-seeking, dependence, and facilitate recovery and withdrawal are a priority need.

[3] = tested on: streptozotocin (STZ) induced diabetic rats
Experimental: Rats were fasted overnight and received a single intraperitoneal injection of streptozotocin (60 mg/kg, Sigma-Aldrich) in citrate buffer (pH 4.5) to induce type I diabetes. The induction of diabetes was confirmed 72 h after streptozotocin injection by measurement of blood glucose levels using Contour® blood glucose diagnostic kit (Bayer HealthCare, Canada). Body weight and blood glucose levels were measured before and 3 days after streptozotocin injection, once a week for three weeks after diabetes induction. Only rats having blood glucose concentration consistently higher than 300 mg/dl were used for the present study. […]
(§1) Tactile allodynia Mechanical sensitivity was assessed using calibrated von Frey hairs (7). Animals were placed in Plexiglas boxes on an elevated metal mesh floor and allowed 60 min for habituation before testing. A series of von Frey filaments with logarithmically incrementing stiffness was applied perpendicular to the mid-plantar region of the hind paw. The 50% paw withdrawal threshold was determined using Dixon's up-down method. Withdrawal thresholds of both paws were averaged as one single value per animal. Assessment on the effects of RAP103 on mechanical and cold allodynia was performed between 2-4 hours following the drug administration. […] All data were presented as means±SEM. Statistical analysis was performed by two-way ANOVA followed by Bonferroni post-tests. The criterion for statistical significance was P<0.05.

[4] = tested on: STZ induced diabetic rats; conditions: oral administration
Experimental: (§2) Rats were fasted overnight and received a single intraperitoneal injection of streptozotocin (60 mg/kg, Sigma-Aldrich) in citrate buffer (pH 4.5) to induce type I diabetes. The induction of diabetes was confirmed 72 h after streptozotocin injection by measurement of blood glucose levels using Contour® blood glucose diagnostic kit (Bayer HealthCare, Canada). Body weight and blood glucose levels were measured before and 3 days after streptozotocin injection, once a week for three weeks after diabetes induction. Only rats having blood glucose concentration consistently higher than 300 mg/dl were used for the present study.
The treatment lasted for 8 days Note, n=5 for H2O and n=7 for RAP-103/each dose.
as §1, with “Statistical analysis was performed by two-way ANOVA followed by Bonferroni post-tests. The criterion for statistical significance was P<0.05.” left out

CCL2, CCL3 = tested on: CCL2, CCL3
Excerpt: Because opioids are used in the management of pain conditions that contribute to OUD, we determined the efficacy of a small peptide chemokine receptor antagonist RAP-103 (all-D-TTNYT, SEQ ID #1, Table 1), sometimes called RAP-103 or R103) to reverse opioid receptor analgesic tolerance and block pain as a test of its ability to block-drug seeking behaviors. Painful diabetic neuropathy (PDN) is a common complication of diabetes which adversely affects patients' daily life, often involves opioid use, which creates an addiction risk. […] To test the hypothesis, we first used behavioral and molecular/cellular approaches to explore chronic pain development and inflammatory reaction in Streptozotocin (STZ) induced diabetic rats. […] CCL2 and CCL3 are two chemokines well known in mediating immune cell trafficking and immune response in the context of neuropathic pain.
as §2

[5] = tested on: cocaine induced locomotor behavior; conditions: rats, 0.001, 0.01, 0.03 mg/kg, p.o., 30 min before cocaine 10 mgs/Kg
Experimental: Locomotor activity (ambulation+stereotypy) induced by cocaine and the effect of RAP-103 was assessed using a Digiscan DMicro system. Following a 60-min habituation in activity chambers, rats were pretreated with RAP-103 (0.03, 0.01, 0.001 mgs/Kg) or vehicle 30 min before cocaine (10 mgs/Kg) or vehicle and activity was measured for 120 min. Differences between individual groups were determined with a Bonferroni post-hoc test. Statistical significance was set at p<0.05.

MOR-dependent rats = conditions: 0.5 mg/kg, naloxone 3 mg/kg SC on day 7, quantified for 60 min
Experimental: Opioid tolerance during chronic exposure requires increasing opioid doses to maintain analgesic efficacy. Physical dependence also develops during chronic opioid exposure and, upon discontinuation of opioid intake, presents as a withdrawal syndrome that triggers opioid relapse. We tested the effects of RAP-103 (0.5 mg/kg) on naloxone-precipitated withdrawal signs in MOR-dependent rats. To induce physical dependence we implanted opioid (heroine) containing pellets. On day 7 rats received naloxone (3 mg/kg, SC) with or without added RAP-103 and the withdrawal signs of wet dog shakes and eye blinking were quantified for 60 min.

[6] = tested on: opioid self-administration; conditions: rats, MOR 0.25 mg/kg/inf
Excerpt: Rats were surgically prepared to have indwelling catheters prior to self-administration testing. To begin each session, house lights were turned on and two retractable levers extended into the chamber. […] A 20-s timeout period will follow each infusion to limit possibility of overdose. […] The dependent variable measured will be the number of infusions earned by the end of the session and defined as the breakpoint. Total cumulative responses made by the rat on the active lever during each session will also be recorded. Once rats reach criteria for stable PR responding, which is defined as 3 consecutive days of responding without upward or downward variance (<20% change from mean number of reinforcers earned for 3 consecutive days), R103 (0.02, 0.1, and 0.5 mg/kg) will be administered 15 min before daily SA sessions to assess effects on breaking point and to obtain dose-effect data for R103. A repeated-measures 2-way ANOVA (R103 treatment, sex) between-subjects design followed by a Bonferroni test was used.

[7] = STZ diabetic rats, oral administration for 7 days

Compound: c1cc(CN2CCCNCCNCCCNCC2)ccc1CN1CCCNCCNCCCNCC1 [AMD3100, Plerixafor]
- cocaine reward / conditioned place preference (CPP) (cocaine reward): inhibits cocaine reward
- cocaine reward / conditioned place preference (CPP) (cocaine reward; listed as AMD 3100): inhibits conditioned place preference (CPP)
- locomotor activation produced by an acute cocaine injection ([1]; 5, 10 mg/kg pretreatment): reduced locomotor activation
- locomotor activation produced by cocaine [1]: inhibits
- cocaine taking in rat self-administration assays (cocaine taking): inhibits

Compound: COc1ccc(C2(O)CCC(N3CC[C@@H](NC(=O)CNC(=O)c4cccc(C(F)(F)F)c4)C3)CC2)cn1 (some centres unmarked) [INCB 3284]
- cocaine reward / conditioned place preference (CPP) (cocaine reward): prevented psychostimulant-induced CPP

Compound: Maraviroc
- cocaine reward / conditioned place preference (CPP) (cocaine reward): reduces rewarding
- locomotor activation produced by cocaine [1]: reduces

Compound: SSTYR [SEQ ID No.: 2]
- EC50 [2]: 1 pM

Compound: STNYT [SEQ ID No.: 3]
- EC50 [2]: 3 pM

Compound: TTNYT [SEQ ID No.: 1, all-D-TTNYT]
- neuropathic pain [3, 7]: reduced neuropathic pain
- mechanical allodynia ([3]; STZ induced diabetic rats, oral administration): reversed mechanical allodynia
- established hypersensitivity ([3]; STZ rats, 0.5-0.02 mg/Kg b.w., daily, for 7 days): complete reversal of established hypersensitivity
- cold allodynia [4]: reversed cold allodynia
- expression of chemokines and cytokines (CCL2, CCL3; [7]): inhibited expression of chemokines and cytokines
- inflammation: CCL2 in the sciatic nerves (CCL2, CCL3; STZ rats, 0.5 mg/kg, for 7 days, p.o., FIG. 3A): significantly inhibited inflammation
- inflammation: CCL3 in the sciatic nerves (CCL2, CCL3; STZ rats, 0.5 mg/kg, for 7 days, p.o., FIG. 3B): significantly inhibited inflammation
- cocaine induced locomotor behavior (locomotor activity counts) ([5]; listed as RAP103): inhibited psychostimulant cocaine induced locomotor behavior
- cocaine induced locomotor behavior (locomotor activity counts) ([5]; listed as RAP-103): blocks the locomotor inducing effects of cocaine
- naloxone precipitated withdrawal signs (wet dog shakes and eye blink) (MOR-dependent rats; listed as RAP103): significantly inhibited naloxone precipitated withdrawal signs
- naloxone precipitated withdrawal signs (wet dog shakes and eye blink) (MOR-dependent rats; listed as RAP-103): blocks naloxone-precipitated withdrawal signs
- opioid self-administration by lever press for drug infusions [6]: significantly inhibited opioid self-administration
- motivation to work for reinforcer (self-administer an opioid), progressive-ratio ([6]; R103 0.02, 0.1, and 0.5 mg/kg 15 min before sessions): significantly reduced
